# Measurements reported in patent EP0433526A1, “Medicine for the treatment of heart-circulatory illnesses, of arrhythmics in particular” (Richter, Peter, Prof. Dr.sc.nat., priority 1989, dated 1991).
# Columns and labels:
# g-Strophantinarrhythmie = assay: g-Strophanthin arrhythmia, guinea pig, i.v.; type: in vivo, Meerschweinchen
# Procedure: Die Methode beruht auf der Erzeugung ventrikulärer Arrhythmien durch g-Strophantin, das männlichen Meerschweinchen in Urethannarkose (Körpermasse 300-350 g) in der Dosierung von 30 µg/kg/min über die Vena jugularis infundiert wurde. Bewertungskriterien sind hierbei die am EKG unter g-Strophantin zu beobachtenden ersten Extrasystolen sowie der Eintritt der Asystolie. Die Verzögerung des Auftretens dieser Ereignisse unter Substanzgabe wird berechnet und ist als Maß der antiarrhythmischen Effektivität zu werten.
# [1] = rat; for therapeutische Index (Q = LD₅₀/ED₂₀): acute test, intravenous injection
# Infarktgröße = assay: Infarct size determination (p-NBT), rat, i.v.; type: in vivo, Ratte; settings: for Hemmung der Infarktgröße x %: significant
# Description: Die Bestimmung der Herzinfarktgröße ist ein wichtiger Parameter zum Nachweis antiischämischer Wirkqualitäten für eine Substanz. Die hier angewendete markohistochemische Infarktgrößenbestimmung durch Inkubation mit p-Nitroblautetrazoliumsalz (p-NBT) beruht auf einem Dehydrogenasenachweis, wobei p-NBT als Wasserstoffakzeptor dient und die damit verbundene Reduktion des Salzes zu einer Farbänderung desselben führt. Die Beeinflussung der Größe des ischämischen Areals - die Ischämie wurde durch Ligatur der linken Koronararterie männlicher Wistarratten (Körpermasse 200-250 g) erzeugt - wurde nach i.v. Applikation (3 min vor Okklusion) einiger Verbindungen der allgemeinen Formel 1 untersucht. Die hier erhobenen Befunde spiegeln eindeutig die myokardprotektive Wirkkomponente dieser Verbindungen wieder. […] (Beispiel 21) bzw. das (E)-/(Z)-2-Amino-5-chlorbenzophenon-N-phenylamidinohydrazonnitrat [B] (Beispiel 3) wurden die in Tabelle 9 wiedergegebenen Resultate erhalten. TABELLE 9
# Koronararterienokklusion = assay: Coronary artery occlusion, rat, i.v. (early-phase arrhythmias); type: in vivo, Ratte; settings: for Überlebensrate n. 20 min: 2 . 10⁻⁵ mol/kg i.v. 3 min before occlusion, control 33; for Normaler Sinusrhythmus / Tod durch Bradyk. / Auftreten von Arrhythmien VF / Auftreten von Arrhythmien VT / Auftreten von Arrhythmien andere: 2 . 10⁻⁵ mol/kg i.v.; for Normaler Sinusrhythmus: control 0; for Tod durch Bradyk.: control 30; for Auftreten von Arrhythmien VF: control 59; for Auftreten von Arrhythmien VT / Auftreten von Arrhythmien andere: control 82
# Procedure: Die Untersuchungen zur Beeinflussung der Arrhythmien in der Frühphase nach Koronarokklusion erfolgten an männlichen Wistarratten (Körpermasse 200-250 g) in Pentobarbitalnarkose. Nach Ligatur der linken Koronararterie wurden die Überlebensrate sowie das Auftreten verschiedener Arrhythmieformen innerhalb 20 min nach Okklusion bewertet. Für die überlebenden Tiere erfolgten zusätzlich die Bestimmung des Zeitpunktes des Einsetzens der Arrhythmien und deren Dauer in min sowie die Zahl der ventrikulären Extrasystolen. Das Arrhythmiegeschehen in der Frühphase nach Ligatur wurde von einer Reihe Verbindungen der allgemeinen Formel 1 nach i.v.-Injektion im positiven Sinne beeinflußt. Beispielsweise wirken (Z)- bzw. (E)-2-Amino-5-chlorbenzophenonamidinohydrazonacetat (Beispiel 21 bzw. 32) dosisabhängig und stark protektiv nach i.v. Gabe (3 min vor Okklusion) von 1 . 10⁻⁵ und 2,1 . 10⁻⁵mol/kg. Die an der Aconitinarrhythmie gefundene gute antiarrhythmische Wirkung wurde damit an der Okklusion bestätigt, was durch die in Tabelle 7 zusammengestellten Ergebnisse dokumentiert werden soll. TABELLE 7
# [2] = tested on: schnellen Na⁺-Einwärtsstromes; assay: Voltage clamp on isolated adult rat heart cells
# [3] = Clinical trial stage I, intravenous, man
# [4] = tested on: isoprenalininduzierten Glykogenolyse; assay: Isoprenaline ischaemia, rat, i.v. and p.o. (heart glycogen content); type: in vivo, Ratte; settings: mean of n = 10
# Procedure: Der Myokardschutz durch verschiedene Verbindungen der allgemeinen Formel 1 wurde nach i.v. und p.o. Applikation der Verbindungen am Modell der Isoprenalinischämie der Ratte geprüft. Die für diese Untersuchungen verwendete Methode erfaßt die Veränderungen des Glykogengehaltes im Herzgewebe unter Isoprenalin und dessen Beeinflussung durch Testsubstanzen. Isoprenalin wurde dabei intraperitoneal in Dosis von 5 mg/kg verabfolgt. Die i.v. Injektion der Prüfstoffe erfolgte unmittelbar vor der Isoprenalingabe, die orale Applikation 30 min davor. Als Versuchstiere wurden männliche Wistarratten (Körpermasse 200-250 g) eingesetzt. Einige der Verbindungen zeigten eine auffallende myokardprotektive Wirksamkeit. […] Die nach i.v.- bzw. p.o.-Applikation aus je n = 10 Tieren pro Dosis beobachteten Hemmwerte (Mittelwerte) gegenüber der Isoprenalininwirkung sind in Tabelle 8 aufgeführt. Tabelle 8
# [5] = Toxicology, repeated oral dosing, rat; settings: per os, repeated administration
# [6] = Toxicology, repeated oral dosing, minipig; settings: per os, repeated administration
# [7] = 5 . 10⁻⁷ mol/kg i.v., significant vs control
compound,measurement,setting,value
"Cl.N=C(N)N/N=C(\c1ccccc1)c1cc(Cl)ccc1N [Beispiel 30, (E)-2-Amino-5-chlorbenzophenonamidinohydrazonhydrochlorid]",Verzögerung des Eintritts der ersten Extrasystolen,"g-Strophantinarrhythmie; 1,25 . 10⁻⁶ mol/kg i.v.",33%
CCOc1ccccc1OCC(O)CNCCNCC(O)COc1ccccc1OCC (centres unmarked) [Falirythmin],therapeutische Index (Q = LD₅₀/ED₂₀),[1],"11,5"
CC[C@H]1[C@@H]2C[C@H]3[C@@H]4N(C)c5ccccc5[C@]45C[C@@H]([C@@H]2[C@H]5O)N3[C@@H]1O [Ajmalin],therapeutische Index (Q = LD₅₀/ED₂₀),[1],"6,8"
CCOC(=O)Nc1ccc2c(c1)N(C(=O)CCN1CCOCC1)c1ccccc1S2 [Etmozin],therapeutische Index (Q = LD₅₀/ED₂₀),[1],"1,8"
"N=C(NN=C(c1ccccc1)c1cc(Cl)ccc1N)Nc1ccccc1.O=[N+]([O-])O [Beispiel 3, (E)-/(Z)-2-Amino-5-chlorbenzophenon-N-phenylamidinohydrazonnitrat]",ischämisches Gewebe x %,"Infarktgröße; 1 . 10⁻⁷ mol/kg i.v. 3 min before occlusion, control 46,1","21,0%"
same,Hemmung der Infarktgröße x %,Infarktgröße; 1 . 10⁻⁷ mol/kg i.v.,"54,4 s %"
same,antiarrhythmische Wirkung gegenüber der g-strophantininduzierten Extrasystolie,g-Strophantinarrhythmie; 1 . 10⁻⁶ mol/kg i.v.,+19%
same,antiarrhythmische Wirkung gegenüber der g-strophantininduzierten Extrasystolie,"g-Strophantinarrhythmie; 2,10 . 10⁻⁶ mol/kg i.v.",+35%
same,normalen Sinusrhythmus,Koronararterienokklusion; 5 . 10⁻⁷ mol/kg i.v.,50%
same,Auftreten verschiedener Arrhythmieformen (VF),Koronararterienokklusion; [7],10%
same,Auftreten verschiedener Arrhythmieformen (VT),Koronararterienokklusion; [7],30%
same,Auftreten verschiedener Arrhythmieformen (andere),Koronararterienokklusion; [7],50%
same,Überlebensrate,Koronararterienokklusion; [7],80%
CC[C@H]1C2C[C@H]3[C@@H]4N(C)c5ccccc5[C@]45C[C@@H]([C@@H]2[C@H]5O)[N@@+]3(CC(O)CN(CC)CC)[C@@H]1O (some centres unmarked) [Tachmalcor],therapeutische Index (Q = LD₅₀/ED₂₀),[1],"25,5"
(E)-2-Amino-5-chlorbenzophenonamidinohydrazonacetat [Beispiel 32],Überlebensrate n. 20 min,Koronararterienokklusion,71 s %
same,Normaler Sinusrhythmus,Koronararterienokklusion,46 s %
same,Tod durch Bradyk.,Koronararterienokklusion,19 ns %
same,Auftreten von Arrhythmien VF,Koronararterienokklusion,8 s %
same,Auftreten von Arrhythmien VT,Koronararterienokklusion,13 s %
same,Auftreten von Arrhythmien andere,Koronararterienokklusion,54 ns %
(Z) -2-Amino-5-chlorbenzophenonamidinohydrazonacetat [Beispiel 21],schneller Na⁺-Einwärtsstrom,[2],Hemmung
same,"Dosierung, ab der die antiarrhythmische Aktivität ausreichend erscheint",[3],"≥ 0,25 mg/kg"
same,"Dosis, bei der die antiarrhythmische Aktivität beginnt",[3],"0,06 mg/kg"
same,x % Hemmung,"[4]; intravenös, 1,0 . 10⁻⁵ mol/kg","48,7%"
same,x % Hemmung,"[4]; intravenös, 1,5 . 10⁻⁵ mol/kg","37,6%"
same,x % Hemmung,"[4]; intravenös, 3,2 . 10⁻⁵ mol/kg","45,0%"
same,x % Hemmung,"[4]; intravenös, 3,2 . 10⁻⁶ mol/kg","5,9%"
same,x % Hemmung,"[4]; intravenös, 4,6 . 10⁻⁶ mol/kg","26,7%"
same,x % Hemmung,"[4]; intravenös, 5,0 . 10⁻⁵ mol/kg","69,6%"
same,x % Hemmung,"[4]; peroral, 1,0 . 10⁻⁴ mol/kg","25,6%"
same,x % Hemmung,"[4]; peroral, 1,9 . 10⁻⁴ mol/kg","81,4%"
same,x % Hemmung,"[4]; peroral, 3,7 . 10⁻⁴ mol/kg","71,4%"
same,x % Hemmung,"[4]; peroral, 5,0 . 10⁻⁴ mol/kg","85,3%"
same,x % Hemmung,"[4]; peroral, 7,2 . 10⁻⁵ mol/kg, 30 min before isoprenaline","37,2%"
same,Dosen als gut verträglich eingeschätzt,[5],25 mg/kg
same,Dosen als gut verträglich eingeschätzt,[6],30 mg/kg
same,ischämisches Gewebe x %,"Infarktgröße; 2 . 10⁻⁵ mol/kg i.v. 3 min before occlusion, control 35,0","15,2%"
same,Hemmung der Infarktgröße x %,Infarktgröße; 2 . 10⁻⁵ mol/kg i.v.,"56,6 s %"
same,Verzögerung des Auftretens der ersten Extrasystolen,"g-Strophantinarrhythmie; 6,25 . 10⁻⁷ mol/kg i.v. 5 min before g-strophanthin infusion, significant",28%
same,Überlebensrate n. 20 min,Koronararterienokklusion,70 s %
same,Normaler Sinusrhythmus,Koronararterienokklusion,26 s %
same,Tod durch Bradyk.,Koronararterienokklusion,25 ns %
same,Auftreten von Arrhythmien VF,Koronararterienokklusion,8 s %
same,Auftreten von Arrhythmien VT,Koronararterienokklusion,13 s %
same,Auftreten von Arrhythmien andere,Koronararterienokklusion,54 ns %
same,therapeutische Index (Q = LD₅₀/ED₂₀),[1],"40,0"
same,therapeutische Index Qp.o.,[1]; single oral administration,"74,3"
